Test results as given in ChEMBL document CHEMBL5113532, “Design and Characterization of a Natural Arf-GEFs Inhibitor Prodrug CHNQD-01255 with Potent Anti-Hepatocellular Carcinoma Efficacy In Vivo” (J Med Chem, 2022).

Experiments:
[1] = Solubility of the compound in 0.9% NaCl at pH 7.4; type: physicochemical
[2] = Solubility of the compound in PBS/DMSO (95/5% V/V) at pH 7.2 to 7.4; type: physicochemical
HepG2 [3] = test: Antitumor activity against human HepG2 cells xenografted in BALB/c nude mouse assessed as tumor growth inhibition at 45 mg/kg, po qd administered daily for 21 consecutive days and measured every 3 days upto 21 days relative to control; type: functional; details: HepG2, 504 h, time <= 21 day, read-out: TGI
[4] = Toxicity in BALB/c mouse xenografted with human HepG2 cells assessed as change in body weight at 15 to 45 mg/kg, po qd at 45 mg/kg, po treated daily for 21 days measured every 3 days for 21 days; type: organism-based; details: in vivo, 504 h, dose 15-45 mg/kg, time 21 day
HepG2 [5] = test: Antitumor activity against human HepG2 cells xenografted in BALB/c nude mouse assessed as tumor growth inhibition at 9 mg/kg, iv qd administered daily for 21 consecutive days and measured every 3 days upto 21 days relative to control; type: functional; details: HepG2, 504 h, time <= 21 day, read-out: TGI
[6] = AUC (0 to t) in ICR mouse at 45 mg/kg, po measured after 0.083 to 12 hrs by UPLC-MS/MS analysis; type: ADME, organism-based; design: dose 45 mg/kg, time upper 12 hrs, time lower 0.083 hrs, route po; details: in vivo
[7] = Oral bioavailability in ICR mouse at 45 mg/kg measured after 0.083 to 12 hrs by UPLC-MS/MS analysis; type: ADME, organism-based; details: in vivo, time 0.083-12 hrs
[8] = AUC(0 to t) in ICR mouse at 10 mg/kg, iv measured after 0.083 to 12 hrs by UPLC-MS/MS analysis; type: ADME, organism-based; design: time upper 12 hrs, dose 10 mg/kg, time lower 0.083 hrs, route iv; details: in vivo
[9] = Drug distribution in ICR mouse duodenum at 100 mg/kg, ip measured upto 0.5 hrs by UPLC-MS/MS analysis; type: ADME, organism-based; details: in vivo
[10] = Drug distribution in ICR mouse liver at 100 mg/kg, ip measured upto 0.5 hrs by UPLC-MS/MS analysis; type: ADME, organism-based; details: in vivo
[11] = Drug elimination in ICR mouse heart at 100 mg/kg, ip measured for 1.5 hrs by UPLC-MS/MS analysis; type: ADME, organism-based; details: in vivo
[12] = Drug elimination in ICR mouse duodenum at 100 mg/kg, ip measured for 1.5 hrs by UPLC-MS/MS analysis; type: ADME, organism-based; details: in vivo
[13] = Acute toxicity in ip dosed ICR mouse assessed as maximum tolerated dose; type: organism-based; details: in vivo
[14] = Toxicity in ICR mouse assessed as change in body weight at 45 mg/kg, po qd measured for 14 days; type: organism-based; details: in vivo, 336 h, time 14 day
[15] = Hepatotoxicity in ICR mouse assessed as change in blood ALT level at 45 mg/kg, po by biochemical assay; type: toxicity, organism-based; details: in vivo
[16] = Renal toxicity in ICR mouse assessed as change in blood UREA level at 45 mg/kg, po by biochemical assay; type: organism-based; details: in vivo
[17] = Renal toxicity in ICR mouse assessed as change in blood UA level at 45 mg/kg, po by biochemical assay; type: organism-based; details: in vivo
[18] = Renal toxicity in ICR mouse assessed as change in blood CK level at 45 mg/kg, po by biochemical assay; type: organism-based; details: in vivo
[19] = Toxicity in ICR mouse assessed as effect on heart at 45 mg/kg, po measured after 2 weeks by H and E staining based analysis; type: organism-based; details: in vivo, 336 h
[20] = Toxicity in ICR mouse assessed as effect on lung at 45 mg/kg, po measured after 2 weeks by H and E staining based analysis; type: organism-based; details: in vivo, 336 h
[21] = target: Voltage-gated inwardly rectifying potassium channel KCNH2 (Homo sapiens, UniProt Q12809); test: Inhibtion of hERG transfected in HEK293 cells by whole cell patch clamp method; type: toxicity, cell-based
Sequence of Voltage-gated inwardly rectifying potassium channel KCNH2 (Q12809 whole entry): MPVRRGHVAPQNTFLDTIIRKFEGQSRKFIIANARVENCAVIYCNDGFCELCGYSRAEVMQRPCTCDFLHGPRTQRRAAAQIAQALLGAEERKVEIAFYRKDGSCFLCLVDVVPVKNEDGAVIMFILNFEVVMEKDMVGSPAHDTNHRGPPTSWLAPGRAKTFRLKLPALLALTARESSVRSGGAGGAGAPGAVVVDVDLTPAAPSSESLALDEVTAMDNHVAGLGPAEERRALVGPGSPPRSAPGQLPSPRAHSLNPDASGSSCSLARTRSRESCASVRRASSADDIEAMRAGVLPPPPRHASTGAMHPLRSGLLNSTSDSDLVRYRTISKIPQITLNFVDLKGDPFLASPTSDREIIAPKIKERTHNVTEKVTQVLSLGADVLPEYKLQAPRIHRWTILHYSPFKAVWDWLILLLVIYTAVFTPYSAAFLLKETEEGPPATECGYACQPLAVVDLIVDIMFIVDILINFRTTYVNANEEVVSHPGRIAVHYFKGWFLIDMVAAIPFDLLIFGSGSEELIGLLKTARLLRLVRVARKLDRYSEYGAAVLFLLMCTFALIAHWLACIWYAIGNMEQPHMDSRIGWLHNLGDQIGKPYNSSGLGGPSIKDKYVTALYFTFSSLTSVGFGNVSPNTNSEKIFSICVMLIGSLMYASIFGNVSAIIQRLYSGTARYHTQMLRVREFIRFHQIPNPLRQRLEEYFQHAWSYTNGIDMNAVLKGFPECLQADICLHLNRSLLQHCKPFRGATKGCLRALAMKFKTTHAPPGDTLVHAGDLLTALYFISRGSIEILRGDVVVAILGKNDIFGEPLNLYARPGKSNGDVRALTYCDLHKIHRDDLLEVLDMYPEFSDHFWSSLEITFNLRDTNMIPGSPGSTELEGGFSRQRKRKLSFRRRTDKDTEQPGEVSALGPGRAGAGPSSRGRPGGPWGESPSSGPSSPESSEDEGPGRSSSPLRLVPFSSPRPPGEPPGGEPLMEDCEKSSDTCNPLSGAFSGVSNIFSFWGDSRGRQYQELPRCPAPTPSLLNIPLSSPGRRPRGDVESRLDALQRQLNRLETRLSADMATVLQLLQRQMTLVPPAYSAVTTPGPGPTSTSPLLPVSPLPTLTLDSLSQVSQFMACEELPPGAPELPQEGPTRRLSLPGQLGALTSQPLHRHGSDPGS

## C[C@H]1CCC/C=C/[C@@H]2C[C@H](OC(=O)OCc3cccnc3)C[C@H]2[C@H](O)/C=C/C(=O)O1
[1]
  solubility: < 1000 µg/mL
[2]
  solubility: < 1000 µg/mL
HepG2 [3]
  inhibition in vivo at 45 mg/kg: 61%
[4]
  Activity: Non-Toxic
HepG2 [5]
  inhibition in vivo at 9 mg/kg: 48.3%
[6]
  AUC(0-t): 52.9 ng·h/mL
[7]
  bioavailability: 2.26%
[8]
  AUC(0-t): 519 ng·h/mL
[9]
  Drug uptake: Active
[10]
  Drug uptake: Active
[11]
  Drug excretion: Active
[12]
  Drug excretion: Active
[13]
  MTD: > 100 mg/kg
[14]
  Activity: Non-Toxic
[15]
  Activity: Non-Toxic
[16]
  Activity: Non-Toxic
[17]
  Activity: Non-Toxic
[18]
  Activity: Non-Toxic
[19]
  Activity: Non-Toxic
[20]
  Activity: Non-Toxic
[21]
  IC50: > 30 µM
